The values that follow come from a melting point compilation (Tetko et al.; mined from patent text by program, amines drawn as free bases though some values may be those of a salt).

Structures are written as SMILES.

`COc1cc(-c2ccc(C#N)cc2)c2nc(-c3ccc(OC)c(F)c3)cc(O)c2c1` registered a melting point of 248 to 250 °C.

The compound `c1ccc(C(CCOc2ccc(CCC3=NCCCO3)cc2)(c2ccccc2)c2ccccc2)cc1` came in with a melting point of 60 to 63 °C.

Compound `CCCCCCCCCCCCCCCCNc1ccc(C(=O)NCCS(=O)(=O)O)cc1` had a melting point of 190 to 220 °C.

In turn, `Cc1cc(F)ccc1Nc1nc(N(C)c2ccccc2)c2cccc(OCCCN(C)C)c2n1` displayed a melting point of 110 to 112 °C.

In turn, `CCCCCCCP(=O)(O)O[C@@H](CCCCN)C(=O)N1CCC[C@H]1C(=O)O` returned a melting point of 180 to 186 °C.

Consider `N#Cc1ncn2c(-c3cccc(C(F)(F)F)c3)ccnc12`, for which the melting point lay within 168 to 169 °C.

`CCc1cc2c(cc1F)c(C#N)c(-c1ccc(S(=O)(=O)N[C@@H](C)C(F)(F)F)cn1)n2-c1ncccn1` displayed a melting point of 195 to 198 °C.

In the case of `N#CSCC(=O)c1cccc(Br)c1`, the melting point lay within 91 to 93 °C.

For `COc1cc(N)c(C(=O)c2ccncc2)cc1OC`, the melting point is 155 to 158 °C.

In turn, `COc1ccc(N2CCN(S(=O)(=O)[C@H](C)[C@](O)(Cn3cncn3)c3ccc(F)cc3F)CC2)cc1` gave a melting point of 190 to 191 °C.

The compound `CC(C)NS(=O)(=O)c1cccc(F)c1C#N` returned a melting point of 184 to 189 °C.

The compound `CCCCC1OC(=O)c2cc(NC(=O)CCC(=O)O)ccc21` (configuration not stated) displayed a melting point of 163 to 165 °C.

As to `N#Cc1ccc(Cn2c3cc(O)c(O)cc3c3ccc(O)c(O)c32)cc1`, the melting point was in the range of 225 to 227 °C.

Take `COc1cc2c(cc1OCc1ccccc1)C1Cc3c(Cl)cc(OC)c(OCCO)c3CN1CC2` (configuration not stated): the melting point worked out at 154 °C.

In turn, `CC(=O)OCC1=C(C(=O)O)N2C(=O)C(NC(=O)Cn3ccnc3S(C)(=O)=O)C2SC1` (configuration not stated) returned a melting point of 223 °C.

`Clc1ccc(Nc2ccc(Br)cn2)cc1` had a melting point of 112 to 116 °C.

`CCC1(CC)Cc2cc(O)c(Cl)c(Cl)c2C1=O` displayed a melting point of 184 °C.

`CCCOc1ccc2c(c1)[C@@H](c1ccc(OC)cc1OCCO)[C@H](C(=O)O)[C@H]2c1ccc2c(c1)OCO2` registered a melting point of 125 to 127 °C.

`CC(C)(C(N)=O)/C(F)=C(/F)c1ccc(Cl)cc1` showed a melting point of 99 °C.

The compound `Fc1ccc(-c2ncn(C3CCNCC3)c2-c2ccnc(Oc3ccc(-c4ccccc4)cc3)n2)cc1` gave a melting point of 192 to 193 °C.

On to `O=CN1CC2CC2(c2ccc(O)cc2)C1` (configuration not stated), for which the melting point is 166 to 167 °C.

With `CC(=O)Nc1ccc2c3c(cccc13)S(=O)(=O)N2CCCN1CC=C(c2ccccc2)CC1`, the melting point is 178 °C.

`O=C(NCc1ccc(Cl)cc1)c1cn(C2CC2)c2oc(CCl)cc2c1=O` had a melting point of 174 to 176 °C.

In the case of `CCOC(=O)C(C)=NNc1ccc(Cl)cc1Cl`, the melting point lay in the range of 118 to 120 °C.

`Cc1nc(N2CCN(Cc3ccc(F)c(F)c3)C2=O)sc1C(N)=O` came in with a melting point of 221 to 223 °C.

`Cc1ccc(S(=O)(=O)N2[C@@H](CCC(N)=O)CC[C@H]2c2ccc(F)cc2)cc1` (racemic) came in with a melting point of 136 °C.

`Cc1c(-c2ccncc2)sc(-c2ccncc2)c1C(C)O` (configuration not stated): the melting point lay in the range of 155 to 157 °C.

Turning to `CCc1onc(-c2ccccc2)c1C(=O)NCCCN1CCN(c2ccc(F)cc2OCC(F)(F)F)CC1`, the melting point is 115 to 117 °C.

For the compound `Oc1ccc(-c2nn(C3CCC3)c3c(C(F)(F)F)cccc23)c(O)c1`, the melting point lay in the range of 124 to 125 °C.

In turn, `COc1cccc(N2CCN(CCCO)CC2)c1` had a melting point of 87 to 89 °C.

`CC12CCC3c4ccc(OCc5ccccc5)cc4CCC3C1CCC2OCc1ccccc1` (configuration not stated) displayed a melting point of 74 to 78 °C.

Take `Cn1cc(C(=O)C(=O)Cl)c2ccccc21`: the melting point was 122 to 133 °C.

With `Cc1cc(F)cc2c(=O)c(C(=O)O)cn(CC(F)(F)F)c12`, the melting point was 198 to 201 °C.

For `CC(C)(C)SC1CN(C(=O)OCc2ccccc2)CC1NS(=O)(=O)c1ccc(Oc2ccccc2)cc1` (configuration not stated), the melting point was 125 to 126 °C.

The compound `CCCc1cc(Cn2c(=O)ccc3c(CC)nc(CC)cc32)ccc1Oc1ccccc1CC(=O)OC` registered a melting point of 91 to 92 °C.

`CC1(C)CCC(C)(C)c2cc(CC#Cc3ccc(C(=O)NO)c(O)c3)ccc21` displayed a melting point of 119 to 120 °C.

`CN(O)C(=O)c1ccc(CCCNc2ccc(O)cc2)cc1` had a melting point of 152 to 153 °C.

`COc1ccc(N(CCC(=O)NCC(=O)O)C(=O)c2ccc(Cl)cc2)cc1` registered a melting point of 185 to 187 °C.

The compound `CN(Cc1ccccc1)Cc1nc(-c2ccc(-c3ccccc3)cc2)c[nH]1` had a melting point of 106 to 108 °C.

Compound `CC(c1ccc2c(c1)N(C)c1cc(Cl)ccc1S2)N(O)C(N)=O` (configuration not stated) displayed a melting point of 176 to 177 °C.

For `Cc1cc(S(N)(=O)=O)cs1`, the melting point fell in the range of 102 to 104 °C.

For the compound `CCC1Sc2cc(-c3cccc([N+](=O)[O-])c3)ccc2NC1=O` (configuration not stated), the melting point is 180 °C.

The compound `CCc1ccc(C(Cl)=NOS(C)(=O)=O)cc1` showed a melting point of 50 to 52 °C.

`CCOC(=O)C1=C(C)NC(C)=C(C(=O)OCCOC)C1c1cccc([N+](=O)[O-])c1` (configuration not stated) yielded a melting point of 108 °C.

`CCCC1=C(C(=O)OCC)C(c2ccccc2OCc2ccccc2)c2c[nH]nc2N1` (configuration not stated): the melting point was 128 °C.

In turn, `N#Cc1c(Br)c(Br)n(C#N)c1Br` had a melting point of 195 to 198 °C.

`CCCCCCCCCCCCCCCCCC(CCCCCCCCCCCCCCCCC)=NO` gave a melting point of 66 to 67 °C.

Take `CCCCc1nc2c(c(=O)[nH]1)CN(C(=O)C(C)(C)O)CC2`: the melting point fell in the range of 159 to 161 °C.

For the compound `Brc1ccc(-c2cn([C@H]3CN4CCC3CC4)nn2)s1`, the melting point is 146 °C.

In turn, `Nc1nccc(-c2cn(-c3ccccc3)nc2-c2ccc(F)cc2)n1` gave a melting point of 170 to 171 °C.

`CCCc1c(OCC(O)CSc2nc3ccc(C(=O)O)cc3[nH]2)ccc(C(C)=O)c1O` (configuration not stated) had a melting point of 133 to 135 °C.

The compound `CCCCNC(=O)NS(=O)(=O)c1ccc(CCNC(=O)N2CC(C)=C(C)C2=O)cc1` registered a melting point of 198 to 200 °C.

`COC=NS(=O)(=O)c1cc(C(C)C)c(C#N)cc1C(C)C` returned a melting point of 130 to 132 °C.

`CC1=C(C(=O)CS(=O)(=O)NC(C)C)[C@@H](c2cccc([N+](=O)[O-])c2)C(C(=O)O[C@@H](C)c2ccccc2)=C(C)N1` yielded a melting point of 128 to 131 °C.

Regarding `O=C(NCC12CC3CC(CC(C3)C1)C2)c1cc(N2CC2)ccc1Cl`, the melting point is 154 to 155 °C.

Turning to `COc1c(Cl)cccc1NS(=O)(=O)c1cc(S(=O)(=O)Nc2cccc(Cl)c2OC)c2cc(O)ccc2c1`, the melting point was in the range of 164 to 166 °C.

In turn, `[N-]=[N+]=NOS(=O)(=O)N=[N+]=[N-]` registered a melting point of 60 °C.

As to `CCOC(=O)c1cc2cccc(NS(=O)(=O)c3ccsc3C(=O)OC)c2[nH]1`, the melting point is 173 to 174 °C.

As to `COc1c(Cl)ccc(C#N)c1F`, the melting point lay within 94 to 97 °C.

Compound `COc1ccc(-c2nnc(N3CCC(O)CC3)nc2-c2ccc(OC)cc2)cc1` showed a melting point of 105 to 108 °C.

Consider `CCOC(=O)c1ccc(-c2ccc(C#N)cc2)s1`, for which the melting point was 133 to 134 °C.

Compound `CC(C)(C)OC(=O)N1CCC(C(=O)NC2=NCCCN2)CC1` came in with a melting point of 155 to 160 °C.

Take `Cc1c(Cl)c(C(=O)O)cc(Cl)c1C(=O)O`: the melting point fell in the range of 169 to 171 °C.

`COc1ccc2cc(C(=O)NCc3cc([N+](=O)[O-])cc([N+](=O)[O-])c3)c(=O)oc2c1` had a melting point of 233 °C.

Consider `COC(=O)CC(O)(c1ccccc1)c1ccc2nc(N)n(S(=O)(=O)C(C)C)c2c1` (configuration not stated), for which the melting point was in the range of 147 to 149 °C.

Turning to `CC(c1ccccc1)N1CC(CF)(C(=O)NCc2ccccc2)CC1=O` (configuration not stated), the melting point was in the range of 114 to 116 °C.

`CCCc1c(OCc2cccc(-c3nnn[nH]3)c2)ccc(C(C)=O)c1O`: the melting point lay in the range of 194 to 195 °C.

Compound `O=Cc1sccc1-c1noc2ccccc12` gave a melting point of 173 to 174 °C.

On to `CN(c1cccc2cc(-c3ncc(CN4CCC5(CC4)CNC(=O)O5)s3)[nH]c12)S(=O)(=O)c1cccs1`, for which the melting point turned out to be 224 °C.

On to `COc1ccccc1CC(=O)Nc1cc(Cl)c(Cl)cc1[N+](=O)[O-]`, for which the melting point is 123 to 125 °C.

On to `N#Cc1cccc(C2=Nc3cc(O)c(-c4ccccc4F)cc3NC(=O)C2)c1`, for which the melting point is over 250 °C.

In turn, `CCc1cc(=O)c2nc(OCCO[Si](c3ccccc3)(c3ccccc3)C(C)(C)C)ccc2[nH]1` registered a melting point of 209 to 210 °C.

In the case of `Cn1nnc2sc([N+](=O)[O-])cc2c1=O`, the melting point lay in the range of 164 to 168 °C.

For `COc1cc(OC)c2nccc(Cl)c2c1`, the melting point lay in the range of 115 to 116 °C.

Take `CSC1C(=O)Nc2ccc(-c3ccccc3)cc21` (configuration not stated): the melting point lay in the range of 170 to 172 °C.

In the case of `CCOC(=O)c1cc2cc(Cl)ccc2n1C`, the melting point lay in the range of 81.5 to 82 °C.

The compound `COc1ccc(N(S(C)(=O)=O)S(C)(=O)=O)cc1CN1CCC(=O)C(C(c2ccccc2)c2ccccc2)C1` (configuration not stated) registered a melting point of 132 to 135 °C.

With `COc1ccc(OCc2nc(-c3ccc(F)cc3)c(-c3ccc(S(C)(=O)=O)cc3)s2)cc1`, the melting point lay within 160 to 164 °C.

Take `CN1C(=O)c2cncnc2Nc2ccccc21`: the melting point fell in the range of 236 to 237 °C.

Take `CN(C)C(=O)CN1CCC(c2ccc(Nc3nc4c(-c5cnn(-c6ccc(F)cc6)c5)cccn4n3)cc2)CC1`: the melting point lay in the range of 131 to 133 °C.

The compound `CCC(C(O)c1ccc(Cl)cc1)n1ncn(-c2ccc(N3CCN(C(=O)NC)CC3)cc2)c1=O` (configuration not stated) gave a melting point of 221 °C.

In turn, `COc1cc(-n2c(I)nnc2I)ccc1C` gave a melting point of 176 °C.

For the compound `CC(C)(C)OC(=O)Nc1cc(Br)cc(C(F)(F)F)c1`, the melting point is 113 to 115 °C.

`COCc1cnc2c(NC(=O)c3ccccc3C(F)(F)F)cccc2c1-n1ccnc1` came in with a melting point of 126 to 127 °C.

For `Cc1ccccc1-c1cccc2c1CNC(=O)N2c1ccccc1`, the melting point lay within 236 to 238 °C.

`c1cn(-c2cc(-n3cnc4cc(-c5ccoc5)ccc43)ncn2)cn1` registered a melting point of 294 to 296 °C.

The compound `CCOP(=O)(OCC)C(O[Si](C)(C)C)c1ccc(OC)c(C)c1` (configuration not stated) showed a melting point of 37 °C.

In general, melting point refers to the temperature of the solid-liquid transition.
